Where a name gives a salt, the structure may show the parent alone.
Columns and labels:
[1] = molecular target: T1, SUCR1 (Homo sapiens, UniProt Q9BXA5); test: Calcium mobilization assay, wild-type SUCR1 in HEK293 stably expressing Gα16; assay type: cell-based;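 for Emax: percent of the maximal response to succinate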
T1 construct: The full-length human SUCR1 and mutations were fused after the HA signal peptide and Flag tag; HA signal peptide (N); Flag (N); expressed in transfected cells; host or cells: HEK293 stably expressing Gα16 (pcDNA6.0, transient electroporation)
T1 sequence (Q9BXA5 1-334): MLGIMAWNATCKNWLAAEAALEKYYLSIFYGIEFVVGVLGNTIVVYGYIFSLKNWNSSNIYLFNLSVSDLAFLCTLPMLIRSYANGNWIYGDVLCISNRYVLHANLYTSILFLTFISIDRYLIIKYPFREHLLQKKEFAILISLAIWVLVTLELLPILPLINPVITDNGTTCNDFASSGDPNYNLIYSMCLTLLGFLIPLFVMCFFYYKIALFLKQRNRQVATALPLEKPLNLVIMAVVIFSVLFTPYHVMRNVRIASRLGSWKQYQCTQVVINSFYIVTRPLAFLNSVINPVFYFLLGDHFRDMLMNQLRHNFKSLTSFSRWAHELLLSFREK
Description: (§1) The full-length human SUCR1 and mutations were fused after the HA signal peptide and Flag tag. The constructs were cloned into pcDNA6.0 vector for HEK293 system.
(§2) HEK293 cells were obtained from ATCC (Manassas, VA, USA) and cultured in DMEM supplemented with 10% (v/v) FBS, 100 mg/L penicillin, and 100 mg/L streptomycin in 5% CO2 at 37 °C. For transient transfection, ~2.5 × 10^6 cells were mixed with 2 µg plasmids in 200 µL transfection buffer, and electroporation was carried out with a Scientz-2C electroporation apparatus (Scientz Biotech, Ningbo, China). The experiments were carried out 24 h after transfection. HEK293 cell lines stably expressing Gα16 were constructed by our laboratory.
(§3) For OXGR1, plasmids were transfected into HEK293 (other receptors were transfected into HEK293 stably expressing Gα16) and seeded at a density of 4 × 10^4 per well into 96-well culture plates and incubated for 24 h at 37 °C in 5% CO2. The next day, Cells were incubated with 2 μM/L Fluo-4 AM in HBSS supplemented with 5.6 mM/L D-glucose and 250 μM/L sulfinpyrazone at 37 °C for 45 min. […] Three independent measurements were repeated, i.e., three different transfections, with three technical replicates performed for each experiment. EC50 and Emax values for each curve were calculated by Prism 8.0 software (GraphPad Software).

[2] = system: OXGR1 mutants (variant named in the endpoint); test: Calcium mobilization assay, OXGR1 mutants in HEK293; conditions: for Emax: each ligand normalized to WT (100%);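 for all read-outs here: human OXGR1 variants transiently expressed in HEK293 cells, with intracellular calcium read out by Fluo-4 AM fluorescence, measured 24 h after transfection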
Description: as §1, §2, §3

[3] = molecular target: OXGR1 (Homo sapiens, UniProt Q96P68); test: Calcium mobilization assay (Fluo-4 AM), wild-type OXGR1 in HEK293
Description: as §1, §2, §3

[4] = system: mock-transfected HEK293 cells; test: Calcium assay in mock-transfected (empty vector) HEK293 cells; assay type: cell-based
From the text: Figure. R3 | Activity of the compounds on OXGR1 using calcium assays.
Concentration-response curves of the four agonists in activating OXGR1 through the calcium assays. HEK293 cells were transfected with OXGR1 or empty vector by electroporation.
Cells were then loaded with Fluo-4 AM and intracellular calcium changes after stimulation with different compounds were monitored. Responses were normalized to 100% for the maximal response of each compound on OXGR1. Data are mean ± S.E.M. from three independent experiments (n = 3), with three technical replicates performed for each […]
(1 picture or pasted object on this page, not shown here)

O=C(O)/C=C\C(=O)O [MA, maleate]
Emax ([1]; HEK293, SUCR1 WT, Emax relative to the SUC, read-out: Emax): 89 ± 1% | EC50 ([1]; SUCR1 WT): 210 ± 70 µM | EC50 ([2]; OXGR1 D185A): > 1000 µM | Emax ([2]; OXGR1 D185A): 11± 3 WT% | Emax ([2]; OXGR1 E97A): 79± 7 WT% | EC50 ([2]; OXGR1 F113A): > 1000 µM | Emax ([2]; OXGR1 F113A): 5.1± 10 WT% | EC50 ([2]; OXGR1 F113W): 1000 ± 370 µM | increase in potency by F113W mutation ([2]; OXGR1 F113W versus WT): ~ 2 fold | Emax ([2]; OXGR1 F113W): 99± 14 WT% | EC50 ([2]; OXGR1 F257A): > 1000 µM | Emax ([2]; OXGR1 F257A): 6.6± 7 WT% | EC50 ([2]; OXGR1 F257Y): 1900 ± 300 µM | Emax ([2]; OXGR1 F257Y): 93± 2 WT% | EC50 ([2]; OXGR1 H114A): 4200 ± 300 µM | Emax ([2]; OXGR1 H114A): 79± 4 WT% | EC50 ([2]; OXGR1 H114L): > 1000 µM | Emax ([2]; OXGR1 H114L): -4.4± 2 WT% | Emax ([2]; OXGR1 H281A): 67±4 WT% | EC50 ([2]; OXGR1 I172A): > 1000 µM | Emax ([2]; OXGR1 I172A): 11± 2 WT% | EC50 ([2]; OXGR1 L36A): > 1000 µM | Emax ([2]; OXGR1 L36A): 10± 3 WT% | EC50 ([2]; OXGR1 L89A): > 1000 µM | Emax ([2]; OXGR1 L89A): 6.9± 1 WT% | EC50 ([2]; OXGR1 L186A): > 1000 µM | Emax ([2]; OXGR1 L186A): 14± 2 WT% | EC50 ([2]; OXGR1 L186F): > 10000 µM | Emax ([2]; OXGR1 L186F): 58± 4 WT% | EC50 ([2]; OXGR1 L299P): > 1000 µM | Emax ([2]; OXGR1 L299P): 7.8±3 WT% | activation of OXGR1 L299P ([2]; OXGR1 L299P, in words): abolished | EC50 ([2]; OXGR1 M168I): 3200 ± 300 µM | Emax ([2]; OXGR1 M168I): 71± 0.9 WT% | EC50 ([2]; OXGR1 N28A): 580 ± 30 µM | Emax ([2]; OXGR1 N28A): 120± 2 WT% | EC50 ([2]; OXGR1 R110A): > 1000 µM | Emax ([2]; OXGR1 R110A): -4.4± 2 WT% | EC50 ([2]; OXGR1 R110E): > 10000 µM | Emax ([2]; OXGR1 R110E): 36± 30 WT% | EC50 ([2]; OXGR1 R110Q): > 1000 µM | Emax ([2]; OXGR1 R110Q): 14± 5 WT% | Emax ([2]; OXGR1 R177A): 130± 8 WT% | EC50 ([2]; OXGR1 R264A): > 10000 µM | Emax ([2]; OXGR1 R264A): 54± 5 WT% | EC50 ([2]; OXGR1 R268A): > 1000 µM | Emax ([2]; OXGR1 R268A): 22± 4 WT% | EC50 ([2]; OXGR1 R288A): > 1000 µM | Emax ([2]; OXGR1 R288A): -2.1±4 WT% | EC50 ([2]; OXGR1 R288E): > 1000 µM | EC50 ([2]; OXGR1 R288Q): > 1000 µM | Emax ([2]; OXGR1 R288Q): 16±2 WT% | EC50 ([2]; OXGR1 Y40A): > 1000 µM | Emax ([2]; OXGR1 Y40A): -1.9± 6 WT% | EC50 ([2]; OXGR1 Y93A): > 1000 µM | Emax ([2]; OXGR1 Y93A): 17± 20 WT% | EC50 ([2]; OXGR1 Y284A): > 1000 µM | Emax ([2]; OXGR1 Y284A): 4.8±4 WT% | EC50 ([3]; EC50, OXGR1 WT, mutant series (Appendix Table S4)): 2000 ± 400 µM | Emax ([3]; HEK293, OXGR1 WT, each ligand normalized to WT (100%)): 100 ± 4% | activity in OXGR1-transfected HEK293 cells ([3]; in words): robust activity | activity in mock-transfected cells [4]: no activity

Source: paper PMC13372822 (The EMBO Journal, 2026)
